Drawing on patent US20250066349A1 (Prothena Biosciences Limited, priority 2021, published 2025), this text covers IC50 for 43 molecules.

pIC50: −log10 of the molar value.

For the first assay, the target named is DYRK1A (Homo sapiens (Human), UniProt Q13627). The assay can be described thus: DYRK1A Inhibition Assay. It counts as biochemical. Conditions: Compounds of Formula (I); DYRK1A 1 nM, ATP 20 μM, Ser/Thr 18 peptide 2 μM, 90 minutes; read-out: DYRK1 IC50. The procedure: DYRK1A—Invitrogen #PV4105
• Ser/Thr 18 peptide—Invitrogen #PR8227U • Phos-Ser/Thr 18 peptide—Invitrogen #PR8229U • Assay plate—PerkinElmer #6007279 • ATP—Sigma #A7699-5G • Development reagent A—Invitrogen #PR5194B • Development buffer—Invitrogen #PR4876B Compound preparation • 1. Test compounds were diluted to 1 mM in DMSO • 2. Stock was further diluted 3-fold using Echo platform • 3. 100 nL of DMSO into Columns 1 and 24 and 100 nL of compounds dilutions to Columns 2-23 in a plate.
• 1. Add 5 μL enzyme & substrate mixture to each well in Column 2-23 and A24-H24 wells of the 384-well assay plate; • 2. Add 5 μL 0% Phosphorylation control to A1-H1 and I24-P24 wells of the assay plate; • 3. Add 5 μL 100% Phosphorylation control to I1-P1 wells of the assay plate; • 4. Spin the assay plate (1000 rpm, 1 minute @23° C.); • 5. Incubate enzyme with compounds for 15 minutes at 23° C.; • 6. Add 5 μL ATP solution to each well of the assay plate; • 7. Spin the plate (1000 rpm, 1 minute @23° C.); • 8. Incubate the assay plate for 90 minutes at 23° C.; • 9. Add 10 μL Development reagent A to each well of the assay plate; • 10. Centrifuge the plate at 1000 rpm about 15 seconds and seal a film over assay plate. Incubate the assay plate for 30 minutes at 23° C. • 11. Read assay plates on Envision (see Tables A-D).
Final Compound Concentrations
• Assay buffer: 50 mM Hepes pH7.5, 10 mM MgCl2, 1 mM EDTA, 0.01% Brij-35 • DYRK1A: 1 nM • ATP: 20 μM • Ser/Thr 18 peptide: 2 μM • Reaction time: 90 minutes
One may read the pIC50 as the negative decadic logarithm of the IC50, by convention in mol/L. Consider `O[C@H]1CCN(c2cncc(-c3ccc4cnc5[nH]c(C6CCC6)cc5c4c3)c2)C1` [Compound 69], for which the pIC50 was 7.00 to 8.00.

Consider `O[C@H]1CCN(c2cncc(-c3ccc4cnc5[nH]cc(C6CCC6)c5c4c3)c2)C1` [Compound 66, (S)-1-(5-(1-cyclobutyl-3H-pyrrolo[2,3-c]isoquinolin-8-yl)pyridin-3-yl)pyrrolidin-3-ol], for which the pIC50 is no less than 8.00.

For `Cn1cc(-c2ccc3cnc4[nH]cc(-c5ccc(F)cc5)c4c3c2)cn1` [Compound 2, 1-(4-fluorophenyl)-8-(1-methyl-1H-pyrazol-4-yl)-3H-pyrrolo[2,3-c]isoquinoline], the pIC50 is 7.00 to 8.00.

On to `Cn1cc(-c2ccc3cnc4c(c3c2)c([C@H]2CC[C@@H](N(C)C)CC2)cn4C)cn1` [Compound 49, (1s,4s)-N,N-dimethyl-4-(3-methyl-8-(1-methyl-1H-pyrazol-4-yl)-3H-pyrrolo[2,3-c]isoquinolin-1-yl)cyclohexan-1-amine], for which the pIC50 is 7.00 to 8.00.

As to `Cc1c[nH]c2ncc3ccc(-c4cnc(C#CC5CCOCC5)s4)cc3c12` [Compound 63], the pIC50 was no less than 8.00.

For `Cn1cc(-c2ccc3cnc4cc(C5CCOCC5)sc4c3c2)cn1` [Compound 72], the pIC50 is no less than 8.00.

Consider `O=C1Cc2c(ncc3cc(-c4cnco4)ccc23)N1` [Compound 83], for which the pIC50 was 6.00 to 7.00.

As for `c1ncc(-c2ccc3cnc4sc(C5CCN(CC6CC6)CC5)nc4c3c2)s1` [Compound 86, 2-(1-(cyclopropylmethyl)piperidin-4-yl)-8-(thiazol-5-yl)thiazolo[5,4-c]isoquinoline], the pIC50 was 7.00 to 8.00.

As to `O=C(O)[C@H]1C[C@H](c2c[nH]c3ncc4ccccc4c32)C1` [Compound 33, (1r,3r)-3-(3H-pyrrolo[2,3-c]isoquinolin-1-yl)cyclobutane-1-carboxylic acid], the pIC50 was 6.00 to 7.00.

As to `O=c1[nH]c2ncc3ccc(-c4cccnc4)cc3c2n1Cc1cccnc1` [Compound 11, 8-(pyridin-3-yl)-1-(pyridin-3-ylmethyl)-1,3-dihydro-2H-imidazo[4,5-c]isoquinolin-2-one], the pIC50 is 6.00 to 7.00.

Consider `c1ncc(-c2ccc3cnc4cc(C5CCOCC5)sc4c3c2)s1` [Compound 78, 2-(tetrahydro-2H-pyran-4-yl)-8-(thiazol-5-yl)thieno[3,2-c]isoquinoline], for which the pIC50 was no less than 8.00.

As for `Cc1ncc(-c2ccc3cnc4cc(C5CCOCC5)sc4c3c2)s1` [Compound 79, 8-(2-methylthiazol-5-yl)-2-(tetrahydro-2H-pyran-4-yl)thieno[3,2-c]isoquinoline], the pIC50 is 7.00 to 8.00.

As to `Cc1c(C2CCNCC2)[nH]c2ncc3ccc(-c4cnn(C)c4)cc3c12` [Compound 41, 1-methyl-8-(1-methyl-1H-pyrazol-4-yl)-2-(piperidin-4-yl)-3H-pyrrolo[2,3-c]isoquinoline], the pIC50 was no less than 8.00.

As for `c1nc2c(ncc3ccc(-c4cncs4)cc32)[nH]1` [Compound 77], the negative-log IC50 (pIC50) was no less than 8.00.

Turning to `Cn1cc(-c2ccc3cnc4c(c3c2)c([C@H]2CC[C@H](C(=O)O)CC2)cn4C)cn1` [Compound 47, 4-(3-methyl-8-(1-methyl-1H-pyrazol-4-yl)-3H-pyrrolo[2,3-c]isoquinolin-1-yl)cyclohexane-1-carboxylic acid], the pIC50 was no less than 8.00.

For `Cn1cc(-c2ccc3cnc4[nH]c(=O)n(C5CC(O)C5)c4c3c2)cn1` (stereo not shown) [Compound 21, 1-(3-hydroxycyclobutyl)-8-(1-methyl-1H-pyrazol-4-yl)-1,3-dihydro-2H-imidazo[4,5-c]isoquinolin-2-one], the pIC50 is 7.00 to 8.00.

Turning to `Cn1cc(-c2ccc3cnc4[nH]c(C5CCNCC5)cc4c3c2)cn1` [Compound 39, 8-(1-methyl-1H-pyrazol-4-yl)-2-(piperidin-4-yl)-3H-pyrrolo[2,3-c]isoquinoline], the pIC50 was no less than 8.00.

As to `Cc1c(-c2cccc(C(=O)O)c2)[nH]c2ncc3ccncc3c12` [Compound 52, 3-(9-methyl-7H-pyrrolo[2,3-c][2,6]naphthyridin-8-yl)benzoic acid], the pIC50 is 6.00 to 7.00.

Regarding `Cc1c(C2CCN(CCF)CC2)[nH]c2ncc3ccc(-c4cnn(C)c4)cc3c12` [Compound 54, 2-(1-(2-fluoroethyl)piperidin-4-yl)-1-methyl-8-(1-methyl-1H-pyrazol-4-yl)-3H-pyrrolo[2,3-c]isoquinoline], the pIC50 was no less than 8.00.

As to `CN1CCC(C#Cc2ncc(-c3ccc4cnc5[nH]ccc5c4c3)s2)CC1` [Compound 61, 2-((1-methylpiperidin-4-yl)ethynyl)-5-(3H-pyrrolo[2,3-c]isoquinolin-8-yl)thiazole], the pIC50 was no less than 8.00.

With `CN1CCC(C#Cc2ncc(-c3ccc4cnc5c(ccn5C)c4c3)s2)CC1` [Compound 62, 5-(3-methyl-3H-pyrrolo[2,3-c]isoquinolin-8-yl)-2-((1-methylpiperidin-4-yl)ethynyl)thiazole], the pIC50 was 7.00 to 8.00.

Take `Cc1[nH]c2ncc3ccncc3c2c1-c1cccc(C(=O)O)c1` [Compound 95, 3-(8-methyl-7H-pyrrolo[2,3-c][2,6]naphthyridin-9-yl)benzoic acid]: the pIC50 was 6.00 to 7.00.

Regarding `CN1CCC(c2nccc3c2cnc2[nH]cc(-c4ccncc4)c23)CC1` [Compound 44, 6-(1-methylpiperidin-4-yl)-1-(pyridin-4-yl)-3H-pyrrolo[2,3-c][2, 7]naphthyridine], the pIC50 was 6.00 to 7.00.

Take `C(#CC1CCOCC1)c1ncc(-c2ccc3cnc4[nH]ccc4c3c2)s1` [Compound 59]: the pIC50 was no less than 8.00.

With `Cn1cc(-c2ccc3cnc4nc(C5CCOCC5)sc4c3c2)cn1` [Compound 81, 8-(1-methyl-1H-pyrazol-4-yl)-2-(tetrahydro-2H-pyran-4-yl)thiazolo[4,5-c]isoquinoline], the pIC50 was 6.00 to 7.00.

With `Cc1nc2ncc3ccc(-c4cnn(C)c4)cc3c2s1` [Compound 80], the negative-log IC50 (pIC50) was 6.00 to 7.00.

For `Cn1cc(-c2ccc3cnc4[nH]cc(C5CCN(S(C)(=O)=O)CC5)c4c3c2)cn1` [Compound 29, 8-(1-methyl-1H-pyrazol-4-yl)-1-(1-(methylsulfonyl)piperidin-4-yl)-3H-pyrrolo[2,3-c]isoquinoline], the pIC50 is no less than 8.00.

On to `Cc1cc2c(ncc3ccc(-c4cnc(C#CC5CCOCC5)s4)cc32)[nH]1` [Compound 64], for which the pIC50 is 7.00 to 8.00.

For the molecule `Cn1cc(-c2ccc3cnc4c(c3c2)CCO4)cn1` [Compound 74, 8-(1-methyl-1H-pyrazol-4-yl)-1,2-dihydrofuro[2,3-c]isoquinoline], the negative-log IC50 (pIC50) is 7.00 to 8.00.

Take `Cc1c(C2CCN(C)CC2)[nH]c2ncc3ccc(-c4cnn(C)c4)cc3c12` [Compound 42, 1-methyl-8-(1-methyl-1H-pyrazol-4-yl)-2-(1-methylpiperidin-4-yl)-3H-pyrrolo[2,3-c]isoquinoline]: the pIC50 is no less than 8.00.

With `Cn1cc(-c2ccc3cnc4c(c(C5CCC5)cn4C)c3c2)cn1` [Compound 38, 1-cyclobutyl-3-methyl-8-(1-methyl-1H-pyrazol-4-yl)-3H-pyrrolo[2,3-c]isoquinoline], the pIC50 was 7.00 to 8.00.

As for `Cc1c(-c2cccnc2)[nH]c2ncc3cnccc3c12` [Compound 53], the pIC50 is 6.00 to 7.00.

As to `Cn1cc(-c2ccc3cnc4[nH]ncc4c3c2)cn1` [Compound 7, 8-(1-methyl-1H-pyrazol-4-yl)-3H-pyrazolo[3,4-c]isoquinoline], the pIC50 was 7.00 to 8.00.

Regarding `O=C(O)[C@H]1C[C@@H](c2c[nH]c3ncc4ccccc4c32)C1` [Compound 32, (1s,3s)-3-(3H-pyrrolo[2,3-c]isoquinolin-1-yl)cyclobutane-1-carboxylic acid], the pIC50 was 6.00 to 7.00.

Staying with this assay, now noted: Compounds of Formula (III); DYRK1A 1 nM, ATP 20 μM, Ser/Thr 18 peptide 2 μM, 90 minutes; read-out: DYRK1 IC50.
Take `CN1CCC(C(=O)Nc2ncc(-c3ccc4sncc4c3)s2)CC1` [Compound 5]: the pIC50 is 6.00 to 6.70.

As to `CN1CCC(C(=O)Nc2ncc(-c3ccc4ncoc4c3)s2)CC1` [Compound 1], the pIC50 is 6.70 to 7.30.

Regarding `Cn1ncc2ccc(-c3cnc(C#CC4CCNCC4)s3)cc21` [Compound 7], the pIC50 is 6.70 to 7.30.

The assay is the same for the next values; noted with them: Compounds of Formula (IV); DYRK1A 1 nM, ATP 20 μM, Ser/Thr 18 peptide 2 μM, 90 minutes; read-out: DYRK1 IC50.
As to `CC(=O)N1CCc2c(cnc3[nH]cc(-c4cccnc4)c23)C1` [Compound 8], the pIC50 was 5.30 to 6.00.

For the molecule `CC(=O)N1CCc2c(cnc3[nH]cc(-c4ccncc4)c23)C1` [Compound 7], the pIC50 was 6.00 to 6.30.

In the case of `CC(=O)N1CCc2c(cnc3[nH]cc(-c4cccc(Cl)c4)c23)C1` [Compound 10], the pIC50 was 5.30 to 6.00.

As to `CN1CCc2c([nH]c(=O)c3cc(-c4ccnc5c4CCO5)ccc23)C1` [Compound 13], the pIC50 is 5.30 to 6.00.

As for `Cn1ncc2cc3[nH]c(=O)n(-c4cccc(O)c4)c3cc21` [Compound 5], the pIC50 is 6.00 to 6.30.

Take `O=c1[nH]c2cc3c(cc2o1)[nH]c(=O)n3-c1cccc(O)c1` [Compound 11]: the pIC50 is 5.30 to 6.00.
